Measured values reported in publication PMC5439065, “Effect of Naringenin, Quercetin, and Sesamin on Xenobiotica-Metabolizing CYP1A and CYP3A in Mice Offspring after Maternal Exposure to Persistent Organic Pollutants” (BioMed Research International, 2017).

Legend:
CYP1A = assay: In vitro inhibition of EROD (7-ethoxyresorufin O-dealkylase) activity in hepatic microsomes; conditions: for Inhibition of EROD activity: all exposure groups, concentrations 5 to 100000 nM; for Ki at 5 min: CD-1, mouse, liver microsomes, pH 7.4, probe 7-ethoxyresorufin (0.005 to 4.0 µM)
Procedure: (§1) Liver samples were taken immediately after necropsy, frozen in ethanol and dry ice, and stored at −80°C until use. The microsomal fractions were prepared using a calcium aggregation method. Microsomal protein concentration was determined with a commercially available kit (Bio-Rad laboratories Inc., Hercules, CA, USA) according to the manufacturer's instructions.
(§2) In mice, O-dealkylation of 7-ethoxyresorufin is catalyzed by CYP1A1 and CYP1A2 [15], and O-dealkylation of 7-benzyloxyresorufin by CYP3A11 enzyme. The activities of CYP1A and CYP3A were determined as a rate of ethoxy- (EROD) and benzyloxy- (BROD) resorufin O-dealkylation, respectively. Incubation mixtures contained microsomal protein (0.2 mg), phosphate buffer (pH 7.4, 50 mM), and appropriate substrate (1 μM of 7-ethoxyresorufin or 2 μM of 7-benzyloxyresorufin). Reactions were initiated by the addition of 0.5 mM NADPH. The reaction mixture, in a final volume of 500 μL, was incubated in a water bath at 37°C for 5 min (EROD) or 7 min (BROD), and afterwards the reactions were terminated with ice-cold methanol (500 μL), followed by centrifugation at 7,500 ×g. Resorufin concentrations were measured as previously described. EROD and BROD activities were expressed as pmol of resorufin per milligram protein and minute.
(§3) EROD and BROD activities were initially evaluated in the presence of quercetin, naringenin, and sesamin at nine concentrations from 5 to 100000 nM. To examine the inhibition mode, the activities were determined in the presence of 2 or 3 inhibitor concentrations over the substrate concentration ranges 0.005 to 4.0 μM for EROD and 0.05 to 8 μM for BROD, respectively. The stock solutions of quercetin, naringenin, and sesamin were prepared in DMSO and added to incubations to yield final concentrations of 5, 10, 50, 100, 500, 1000, 2000, […], and 100000 nM. The final DMSO content in the incubations was 0.5%. The control incubations contained the same concentration of DMSO.
(§4) Comparison of enzymatic activities in the absence of the inhibitors between studied groups was performed on logarithmically transformed values using a mixed model with fixed effect of treatment (SAS version 9.3, SAS Institute Inc., Cary, NC, USA). The IC50 (concentration causing 50% reduction of control activity) and Ki values for inhibitors were calculated by nonlinear regression analysis using GraphPad prism version 4.0 for Windows (GraphPad, San Diego, CA, USA). Comparisons of IC50 and Ki values between the studied groups were performed on logarithmically transformed values using one-way analysis of variance, followed by the Tukey multiple-comparisons test. Differences were regarded as significant when P < 0.05.

CYP3A (CYP3A11) = target: T1, CYP3A (CYP3A11) (Mus musculus, UniProt Q64459); assay: in vitro; conditions: CD-1, mouse, microsomes; for IC50 at 7 min: pH 7.4, IC50, CYP3A (BROD), 2 μM 7-benzyloxyresorufin
T1 sequence (Q64459 1-504): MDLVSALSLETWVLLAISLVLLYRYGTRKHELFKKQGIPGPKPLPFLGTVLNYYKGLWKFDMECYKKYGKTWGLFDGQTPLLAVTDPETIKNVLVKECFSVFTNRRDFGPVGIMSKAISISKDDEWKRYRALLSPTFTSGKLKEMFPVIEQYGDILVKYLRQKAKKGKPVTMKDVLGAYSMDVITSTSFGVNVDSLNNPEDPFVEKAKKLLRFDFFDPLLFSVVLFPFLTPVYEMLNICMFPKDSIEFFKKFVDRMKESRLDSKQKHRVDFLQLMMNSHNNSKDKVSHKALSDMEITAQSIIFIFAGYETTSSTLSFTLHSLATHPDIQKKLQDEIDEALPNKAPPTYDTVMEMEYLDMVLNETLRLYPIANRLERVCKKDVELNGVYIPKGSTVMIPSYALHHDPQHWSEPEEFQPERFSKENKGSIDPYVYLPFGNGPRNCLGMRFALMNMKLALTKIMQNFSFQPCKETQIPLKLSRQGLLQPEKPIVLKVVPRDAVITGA
Procedure: as §1, §2, §3, §4

CYP3A = target: T2, CYP3A (Mus musculus, UniProt Q64459); assay: in vitro; conditions: 2 or 3 inhibitor concentrations, substrate 0.05 to 8 μM
T2 sequence (Q64459 1-504): T1 sequence (Q64459 1-504)
Procedure: as §1, §2, §3, §4

[1] = test system: CYP1A (CYP1A1 and CYP1A2); assay: In vitro inhibition of EROD (7-ethoxyresorufin O-dealkylase) activity in hepatic microsomes; conditions: CD-1, mouse, liver microsomes, pH 7.4, probe 7-ethoxyresorufin (1 µM), IC50, CYP1A (EROD), geometric mean (confidence interval), 1 μM 7-ethoxyresorufin
Procedure: as §1, §2, §3, §4

[2] = microsomes from high POPs-exposed mice, geometric mean (confidence interval)
[3] = microsomes from low POPs-exposed mice, geometric mean (confidence interval)
[4] = microsomes from unexposed mice, geometric mean (confidence interval)
[5] = pH 7.4, Ki values, BROD activity, range over the unexposed, low- and high-exposed groups
[6] = pH 7.4, Ki, CYP3A (BROD), microsomes from high POPs-exposed mice, geometric mean (confidence interval)
[7] = pH 7.4, Ki, CYP3A (BROD), microsomes from low POPs-exposed mice, geometric mean (confidence interval)
[8] = pH 7.4, Ki, CYP3A (BROD), microsomes from unexposed mice, geometric mean (confidence interval)

| Structure (SMILES) | Inhibition of EROD activity (CYP1A) | Inhibition of EROD activity (CYP1A; listed as naringenin) | IC50 at 7 min (CYP3A (CYP3A11); [2]) [µM] | IC50 at 7 min (CYP3A (CYP3A11); [3]) [µM] | IC50 at 7 min (CYP3A (CYP3A11); [4]) [µM] | Ki at 7 min (CYP3A (CYP3A11); [5]) [µM] | Ki at 7 min (CYP3A (CYP3A11); [6]) [µM] | Ki at 7 min (CYP3A (CYP3A11); [7]) [µM] | Ki at 7 min (CYP3A (CYP3A11); [8]) [µM] | Mode of inhibition of BROD activity (CYP3A) | IC50 at 5 min ([1]; microsomes from high POPs-exposed mice) [µM] | IC50 at 5 min ([1]; microsomes from low POPs-exposed mice) [µM] | IC50 at 5 min ([1]; microsomes from unexposed mice) [µM] | Mode of inhibition of EROD activity (CYP1A; 2 or 3 inhibitor concentrations, substrate 0.005 to 4.0 μM) | Ki at 5 min (CYP1A; Ki values, EROD activity, range over the unexposed, low- and high-exposed groups) [µM] | Ki at 5 min (CYP1A; Ki, CYP1A (EROD), microsomes from high POPs-exposed mice, geometric mean (confidence interval)) [µM] | Ki at 5 min (CYP1A; Ki, CYP1A (EROD), microsomes from low POPs-exposed mice, geometric mean (confidence interval)) [µM] | Ki at 5 min (CYP1A; Ki, CYP1A (EROD), microsomes from unexposed mice, geometric mean (confidence interval)) [µM] |
| --- | --- | --- | --- | --- | --- | --- | --- | --- | --- | --- | --- | --- | --- | --- | --- | --- | --- | --- |
| O=C1C[C@@H](c2ccc(O)cc2)Oc2cc(O)cc(O)c21 [Naringenin, naringenin] | No inhibition | Neither naringenin nor sesamin inhibited | 43.1 | 49.1 | 40.3 | 39.3 to 45.8 | 39.3 | 45.8 | 42.1 | noncompetitively inhibited | – | – | – | – | – | – | – | – |
| O=c1c(O)c(-c2ccc(O)c(O)c2)oc2cc(O)cc(O)c12 [Quercetin, quercetin] | strongly inhibited | – | 35.7 | 27.1 | 30.2 | 64.9 to 75.3 | 75.3 | 64.9 | 67.1 | noncompetitively inhibited | 5.8 | 5.1 | 5.4 | competitively inhibited | 1.7 to 2.6 | 2.6 | 2.6 | 1.7 |
